Experiments:
Format in all cases: cell-based
[1] = tested on: FaDu head & neck cancer cell line; assay: Modified MTT growth inhibition assay
Procedure: (§1) Combination administrations were performed as sequential treatments where the HDAC inhibitor was administer prior to the EGFR inhibitor, or simultaneous treatments in selected cell lines. Concentrations of HDAC inhibitors and EGFR inhibitors are indicated as μM concentrations in all experiments. SNDX275 was administered in three increasing concentrations, with a variety of ranges depending upon the cell line.
(§2) Drugs were diluted in fresh medium before each experiment, and the final DMSO concentration was <0.1%. Growth inhibition was assessed using a modified MTT assay. 2×10^3 cells were plated in each well of 96-well flat-bottomed microtiter plates and drugs were added the next day. […] The microtiter plates were incubated for 4 hours at 37° C. The visible absorbance of each well was measured using an automated plate reader (Molecular Devices, Sunnyvale, Calif.), and data were analyzed using SlideWrite to determine the drug IC50.

[2] = tested on: MSK2922 head & neck cancer cell line; assay: Modified MTT growth inhibition assay; settings: SNDX275 added as first drug
Procedure: as §1, §2

[3] = tested on: Panc03.27 pancreatic cancer cell line; assay: Modified MTT growth inhibition assay; settings: Panc 03.27, both drugs added at the same time
Procedure: as §1, §2

[4] = tested on: 1483 head & neck cancer cell line; assay: Modified MTT growth inhibition assay; settings: SNDX275 added as first drug
Procedure: as §1, §2

[5] = tested on: UMSCC22B head & neck cancer cell line; assay: Modified MTT growth inhibition assay
Procedure: as §1, §2

[6] = tested on: 584 head & neck cancer cell line; assay: Modified MTT growth inhibition assay; settings: SNDX275 added as first drug
Procedure: as §1, §2

[7] = tested on: UMSCC19 head & neck cancer cell line; assay: Modified MTT growth inhibition assay
Procedure: as §1, §2

[8] = tested on: HS766T pancreatic cancer cell line; assay: Modified MTT growth inhibition assay
Procedure: as §1, §2

[9] = tested on: Panc02.03 pancreatic cancer cell line; assay: Modified MTT growth inhibition assay; settings: Panc 02.03
Procedure: as §1, §2

[10] = tested on: Panc04.03 pancreatic cancer cell line; assay: Modified MTT growth inhibition assay; settings: Panc 04.03
Procedure: as §1, §2

[11] = tested on: HPAFII pancreatic cancer cell line; assay: Modified MTT growth inhibition assay; settings: SNDX275 added as first drug
Procedure: as §1, §2

[12] = tested on: Detroit562 head & neck cancer cell line; assay: Modified MTT growth inhibition assay
Procedure: as §1, §2

[13] = tested on: E-cad expression in H157 cells; assay: E-cad expression after HDAC inhibitor treatment; settings: 24 hours after treatment with 4 or 10 μM MS-275
Procedure: (§3) RNA, Primers, and Quantitative Real-Time RT-PCR. Total RNA was prepared from NSCLC cell lines using the RNAeasy (Qiagen). During the preparation all samples were treated with RNase-free DNase 1 (10 mg/ml, Qiagen) prior to cDNA synthesis. cDNA was synthesized as part of the RT-PCR reaction from […] total RNA. Quantitative Real-Time RT-PCR assays were performed using the SYBR Green RT-PCR Kit (Qiagen) using a GeneAmp 5700 Sequence Detector (Applied Biosystems), which allows amplification and detection (by fluorescence) in the same tube, using a kinetic approach. Amplification data were analyzed by using GENEAMP 5700 SDS software, converted into cycle numbers at a set cycle threshold (Ct values) and quantified in relation to a standard. Human adult-lung (Clontech Lab. Inc) or human fetal-lung RNA (Stratagene) was used as standards in all the experiments. Standards were used at […]. In each experiment a no-template control was used as a control. To normalize for the amount of input cDNA, the quantified relative amount of the generated product was divided by the amount generated for the housekeeping gene beta-Actin. All samples were performed in triplicates.
(§4) Expression of E-cad was evaluated in these cell lines.

[14] = tested on: E-cad expression in H460 cells; assay: E-cad expression after HDAC inhibitor treatment; settings: 24 hours after treatment with 4 or 10 μM MS-275
Procedure: as §3, §4

[15] = tested on: E-cad expression in H520 cells; assay: E-cad expression after HDAC inhibitor treatment; settings: 24 hours after treatment with 4 or 10 μM MS-275
Procedure: as §3, §4

[16] = SNDX275 0.60 μM alone, SNDX275 added as first drug
[17] = SNDX275 0.60 μM alone, both drugs added at the same time
[18] = SNDX275 2.00 μM alone, SNDX275 added as first drug
[19] = SNDX275 2.00 μM alone, both drugs added at the same time
[20] = SNDX275 1.0 μM alone, SNDX275 added as first drug
[21] = SNDX275 1.0 μM alone, both drugs added at the same time
[22] = SNDX275 6.0 μM alone, SNDX275 added as first drug
[23] = SNDX275 6.0 μM alone, both drugs added at the same time
[24] = SNDX275 0.6 μM alone, both drugs added at the same time
[25] = SNDX275 3.0 μM alone, SNDX275 added as first drug
[26] = SNDX275 3.0 μM alone, both drugs added at the same time

Work on `Nc1ccccc1NC(=O)c1ccc(CNC(=O)OCc2cccnc2)cc1` [MS-275] yielded a surviving ([1]; SNDX275 0.30 μM alone, SNDX275 added as first drug) of 69.008%, a surviving ([1]; SNDX275 0.30 μM alone, both drugs added at the same time) of 87.506% and a surviving [1, 16] of 48.451%. For the same compound, the surviving [1, 17] was 73.418%, the surviving [1, 18] was 20.262% and the surviving [1, 19] was 30.504%. The surviving ([2]; SNDX275 0.3 μM alone) was 68.519%, the surviving ([2]; SNDX275 0.6 μM alone) was 42.857% and the surviving ([2]; SNDX275 1.0 μM alone) was 24.438%. It also gave a surviving ([3]; SNDX275 0.10 μM alone) of 78.263%, a surviving ([3]; SNDX275 2.00 μM alone) of 38.926% and a surviving ([3]; SNDX275 6.00 μM alone) of 21.757%. The surviving ([4]; SNDX275 0.6 μM alone) was 79.246%, the surviving ([4]; SNDX275 2.0 μM alone) was 51.509% and the surviving ([4]; SNDX275 3.0 μM alone) was 31.776%. For the same compound, the surviving [5, 20] was 73.156%, the surviving [5, 21] was 76.730% and the surviving ([5]; SNDX275 2.0 μM alone, SNDX275 added as first drug) was 55.978%. The surviving ([5]; SNDX275 2.0 μM alone, both drugs added at the same time) was 63.169%, the surviving [5, 22] was 25.180% and the surviving [5, 23] was 55.057%. For the same compound, the surviving ([6]; SNDX275 0.3 μM alone) was 84.045%, the surviving ([6]; SNDX275 1.0 μM alone) was 45.516% and the surviving ([6]; SNDX275 2.0 μM alone) was 20.656%. For the same compound, the surviving ([7]; SNDX275 0.60 μM alone, SNDX275 added as first drug (first table)) was 73.417%, the surviving ([7]; SNDX275 0.60 μM alone, SNDX275 added as first drug (second table)) was 83.778% and the surviving ([7]; SNDX275 2.00 μM alone, SNDX275 added as first drug (first table)) was 54.951%. It also gave a surviving ([7]; SNDX275 2.00 μM alone, SNDX275 added as first drug (second table)) of 46.466%, a surviving ([7]; SNDX275 6.00 μM alone, SNDX275 added as first drug (first table)) of 24.242% and a surviving ([7]; SNDX275 6.00 μM alone, SNDX275 added as first drug (second table)) of 37.033%. It also gave a surviving [8, 20] of 77.851%, a surviving [8, 21] of 78.939% and a surviving [8, 22] of 40.175%. It also gave a surviving [8, 23] of 55.038%, a surviving ([8]; SNDX275 10.0 μM alone, SNDX275 added as first drug) of 77.851% and a surviving ([8]; SNDX275 10.0 μM alone, both drugs added at the same time) of 32.797%. It also gave a surviving ([9]; SNDX275 0.6 μM alone, SNDX275 added as first drug) of 71.569%, a surviving [9, 24] of 44.980% and a surviving [9, 20] of 34.220%. The surviving [9, 21] was 34.529%, the surviving [9, 25] was 24.323% and the surviving [9, 26] was 25.444%. The surviving ([10]; SNDX275 0.3 μM alone, SNDX275 added as first drug) was 71.205, the surviving [10, 24] was 63.051% and the surviving [10, 20] was 49.175. For the same compound, the surviving [10, 21] was 28.676%, the surviving [10, 25] was 37.954 and the surviving [10, 26] was 25.551%. It also gave a surviving ([11]; SNDX275 0.10 μM alone) of 74.635%, a surviving ([11]; SNDX275 0.30 μM alone) of 42.098% and a surviving ([11]; SNDX275 1.00 μM alone) of 28.287%. For the same compound, the surviving ([12]; SNDX275 0.06 μM alone, SNDX275 added as first drug) was 75.017%, the surviving ([12]; SNDX275 0.06 μM alone, both drugs added at the same time) was 79.829% and the surviving [12, 16] was 58.925%. For the same compound, the surviving [12, 17] was 72.276%, the surviving [12, 18] was 23.887% and the surviving [12, 19] was 28.832%. For the same compound, the “upregulation of E-cad expression” value [13] was “Eight to twelve fold”, the “upregulation of E-cad expression” value [14] was “Eight to twelve fold” and the “upregulation of E-cad expression” value [15] was “Eight to twelve fold”.

Source: US20120141479A1, “Histone Deacetylase Inhibitors Sensitize Cancer Cells To Epidermal Growth Factor Inhibitors” (priority 2007, published 2012)
